Test systems include SNB-19; 786-0; TK-10; HCC 2998; HOP-62; MOLT-4; SF-268; HOP-92; HCT-15; MDA-MB-435; COLO 205; SN12C; T47D; HT-29; SK-MEL-5; HCT-116; SW-620; SNB-75; NCI-H23; LOX IMVI.
Assay in all cases: inhibition of tumour cell growth, NCI panel, 48 h

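Assay format: 96-well plates, 48-hour exposure. Abbreviation: GI50, concentration required for 50% inhibition of growth.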 Active and inactive are the calls of the source. Cut-off read from the data, not from the text of the source: active = GI50 up to about 1.1 µM and inactive = higher. Bounds are passed on as bounds.

On to `COc1ccc2c(c1)CC[C@@H]1[C@@H]2CC[C@]2(C)[C@@H](O)/C(=C/c3ccncc3)C[C@@H]12`, for which the GI50 with SNB-19 was 18.8 µM (inactive); in the test on 786-0, 14.2 µM (inactive); in the test with TK-10, 18.9 µM (inactive); in the test with HCC 2998, 8.59 µM (inactive); in the test with HOP-62, 16.9 µM (inactive); in the test on MOLT-4, 4.65 µM (inactive). Besides, the GI50 was 12.6 µM (inactive) with SF-268; 14 µM (inactive) with HOP-92; 6.95 µM in the test with HCT-15; 9.77 µM (inactive) with MDA-MB-435; 3.94 µM (inactive) in the test on COLO 205; 22.8 µM (inactive) in the test on SN12C. In addition, the GI50 with T47D was 5.14 µM (inactive); with HT-29, 3.99 µM (inactive); with SK-MEL-5 it was 9.75 µM (inactive); in the test with HCT-116, 11 µM (inactive); in the test on SW-620, 6.41 µM (inactive); in the test on SNB-75, 10.4 µM (inactive). Besides, the GI50 in the test on NCI-H23 was 12.8 µM (inactive).
Take `COc1ccc2c(c1)c1c(C)c3cnccc3c(C)c1n2CCCN`: the GI50 with SNB-19 was 0.29 µM (active); in the test with 786-0 it was 0.0288 µM (active); in the test on TK-10 it was 0.248 µM (active); with HCC 2998, 0.457 µM (active); in the test on HOP-62, 0.444 µM (active); in the test with HOP-92, 0.0968 µM (active). Moreover, the GI50 in the test with HCT-15 was 0.0925 µM; with LOX IMVI, 0.0556 µM (active); in the test on MDA-MB-435 it was 0.0502 µM (active); with COLO 205, 0.177 µM (active); in the test with SN12C it was 0.234 µM (active); in the test on T47D, 0.284 µM (active). Also, the GI50 is 0.117 µM (active) with HT-29; 0.383 µM (active) with SK-MEL-5; 0.0556 µM (active) in the test on HCT-116; 0.0466 µM (active) with SW-620; 0.378 µM (active) in the test on SNB-75; 0.216 µM (active) in the test with NCI-H23.
In the case of `NC(=O)C1CCCN1C(=O)C(Cc1c[nH]cn1)NC(=O)C1CCCC1` (stereo not given), the GI50 in the test on SNB-19, with 786-0, with TK-10, in the test with HCC 2998, with HOP-62 and in the test with MOLT-4 was > 100 µM (inactive) throughout. Moreover, the GI50 is > 100 µM (inactive) with HOP-92; above 100 µM with HCT-15; > 100 µM (inactive) in the test on LOX IMVI; > 100 µM (inactive) in the test on MDA-MB-435; > 100 µM (inactive) in the test on COLO 205; > 100 µM (inactive) in the test with SN12C. The GI50 in the test with T47D, in the test on HT-29, with SK-MEL-5, in the test with HCT-116, in the test on SW-620 and in the test on SNB-75 was > 100 µM (inactive) each time. In the test with NCI-H23, the GI50 is > 100 µM (inactive).
Take `CCC(c1c[nH]c2ccc(Br)cc12)c1c[nH]c2ccc(Br)cc12`: the GI50 with SNB-19 was 8.57 µM (inactive); in the test with 786-0, 3.56 µM (inactive); in the test with TK-10, 10.9 µM (inactive); in the test with HCC 2998 it was 2.19 µM (inactive); with HOP-62 it was 10.5 µM (inactive); in the test on MOLT-4 it was 1.94 µM (inactive). The GI50 in the test on SF-268 is 5.97 µM (inactive); in the test on HOP-92, 2.05 µM (inactive); in the test with HCT-15, 4.01 µM; in the test with LOX IMVI, 2.44 µM (inactive); in the test on MDA-MB-435 it was 3.13 µM (inactive); in the test on COLO 205, 2.42 µM (inactive). Also, the GI50 was 3.7 µM (inactive) with SN12C; 2.3 µM (inactive) in the test on T47D; 3.08 µM (inactive) with HT-29; 8.11 µM (inactive) in the test with SK-MEL-5; 3.94 µM (inactive) with HCT-116; 3.94 µM (inactive) with SW-620. The GI50 in the test with NCI-H23 was 2.96 µM (inactive).

Values taken from ChEMBL document CHEMBL1201862, “PubChem BioAssay data set” (2004).
